Results: US20080219963A1, “Composition Containing Micronutrients With Improved Anti-Oxidant Activity And The Use Thereof” (ACTIMEX S.R.L. AREA Science Park, priority 2005, published 2008)
In brackets after ≈: the same amount, converted by molar mass. Each block holds one molecule with its values, some of them ahead of it.

Assays:
[1] = Antioxidant activity, ORAC (Oxygen Radical Absorbance Capacity) test; assay type: biochemical
Experimental: Antioxidant activity was measured using the ORAC (Oxygen Radical Absorbance Capacity) test.
The test was based on measuring the inhibition induced by an antioxidant on the loss of activity of a fluorescent indicator, in the presence of oxidants.
In practice, given a fluorescent indicator (fluorescein) which loses its fluorescence due to the action of an oxidising agent (AAPH), antioxidant activity was evaluated in terms of maintenance of the fluorescence of the indicator over time, due to the ability of the antioxidant to counteract the action of the oxidising agent.
Antioxidant activity was assessed by spectrofluorometric assay, measuring the decay of the fluorescence of the indicator over time (from 0 to 360 minutes). A measuring the fluorescence of the sodium fluorescein indicator was performed using a spectrofluorimeter at a wavelength of 515 nm.
Antioxidant activity is expressed as the antioxidant power in relation to Trolox® at the same concentration of the samples.

[2] = Solubility in buffered water at pH=7 after 24 hours (equilibrium); details: pH 7, aqueous buffer, thermodynamic from solid
Experimental: An excess of powder is added to buffered water at pH=7 until a precipitate is obtained.

[3] = background statement; cited from earlier work

Structure (SMILES): O=C(O)CCCCC1CCSS1 (stereo not drawn) [LIPOIC ACID (alone), lipoic acid]
Rel. antiox. activity ([1]; lipoic acid alone at equal concentration = 1): 1

Structure (SMILES): O=c1c(-c2ccc(O)cc2)coc2cc(O)cc(O)c12 [GENISTEIN (alone), genistein]
solubility at 24 h [2]: 10 µg/mL (≈ 37 µM)
Rel. antiox. activity ([1]; genistein alone at equal concentration = 1): 1

Structure (SMILES): CC(C)=CCC/C(C)=C/C=C/C(C)=C/C=C/C(C)=C/C=C/C=C(C)/C=C/C=C(C)/C=C/C=C(\C)CCC=C(C)C [LYCOPENE (alone), lycopene]
Rel. antiox. activity ([1]; lycopene alone at equal concentration = 1): 1

Structure (SMILES): CC1=C(/C=C/C(C)=C/C=C/C(C)=C/C=C/C=C(C)/C=C/C=C(C)/C=C/C2=C(C)C(=O)[C@@H](O)CC2(C)C)C(C)(C)C[C@H](O)C1=O [ASTAXANTIN (alone), astaxantin]
Rel. antiox. activity ([1]; astaxantin alone at equal concentration = 1): 1

Now from value to molecule, other results behind:

solubility at 24 h ([2]; buffered water): 150 µg/mL (≈ 657 µM)
Structure (SMILES): Oc1ccc(C=Cc2cc(O)cc(O)c2)cc1 [RESVERATROL (alone), resveratrol]

solubility at 24 h ([2]; buffered water): 2 µg/mL (≈ 2.32 µM)
Structure (SMILES): COC1=C(OC)C(=O)C(C/C=C(\C)CC/C=C(\C)CC/C=C(\C)CC/C=C(\C)CC/C=C(\C)CC/C=C(\C)CC/C=C(\C)CC/C=C(\C)CC/C=C(\C)CCC=C(C)C)=C(C)C1=O [UBIDECARENONE (alone), ubidecarenone]
solubility in water or in aqueous environments [3]: < 100 µg/mL
Relative antiox. activity ([1]; ubidecarenone alone at equal concentration = 1): 1
